# Reference: ChEMBL document CHEMBL1201862, “PubChem BioAssay data set” (2004)
#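 How tested: cells in 96-well plates exposed to compound for 48 hours at five concentrations. At the GI50, growth is halved.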 Calls of active or inactive are those of the source. Rule as the data show it: active = GI50 up to about 1.1 µM and inactive = higher.
# Tests used:
# Experiment in all cases: NCI-60 cell line screen, 48 h
# COLO 205 = test system: COLO 205
# SK-MEL-28 = test system: SK-MEL-28
# Malme-3M = test system: Malme-3M
# SNB-19 = test system: SNB-19
# UACC-62 = test system: UACC-62
# M14 = test system: M14
# OVCAR-8 = test system: OVCAR-8
# SK-MEL-5 = test system: SK-MEL-5
# HT-29 = test system: HT-29
# EKVX = test system: EKVX
# SN12C = test system: SN12C
# SF-268 = test system: SF-268
# SF-295 = test system: SF-295
# HCT-15 = test system: HCT-15
# HL-60 = test system: HL-60
# RXF 393 = test system: RXF 393
SMILES,GI50 (COLO 205),GI50 (SK-MEL-28),GI50 (Malme-3M),GI50 (SNB-19),GI50 (UACC-62),GI50 (M14),GI50 (OVCAR-8),GI50 (SK-MEL-5),GI50 (HT-29),GI50 (EKVX),GI50 (SN12C),GI50 (SF-268),GI50 (SF-295),GI50 (HCT-15),GI50 (HL-60),GI50 (RXF 393)
COc1ccc(CCc2cc(OC)c(O)c(OC)c2)cc1,> 100 µM (inactive),19.6 µM (inactive),74.1 µM (inactive),98.6 µM (inactive),69 µM (inactive),77.3 µM (inactive),> 100 µM (inactive),32.8 µM (inactive),41 µM (inactive),> 100 µM (inactive),> 100 µM (inactive),73.5 µM (inactive),,,,
CCCCC1CC(c2ccc(Cl)cc2)=NO1 (centres undefined),> 100 µM (inactive),> 100 µM (inactive),> 100 µM (inactive),> 100 µM (inactive),> 100 µM (inactive),> 100 µM (inactive),> 100 µM (inactive),> 100 µM (inactive),> 100 µM (inactive),> 100 µM (inactive),> 100 µM (inactive),> 100 µM (inactive),> 100 µM (inactive),> 100 µM,85.3 µM (inactive),
Cc1ccccc1-n1c(C)nc2c1C(=O)c1ccccc1C2=O,,> 100 µM (inactive),15.3 µM (inactive),55.5 µM (inactive),47.1 µM (inactive),42 µM (inactive),47.9 µM (inactive),22.1 µM (inactive),37.2 µM (inactive),> 100 µM (inactive),52.4 µM (inactive),67.5 µM (inactive),67 µM (inactive),34.8 µM,20.9 µM (inactive),> 100 µM (inactive)
COc1ccc(OC)c(NC(=O)C(=O)NNC(=O)c2sc(NNC(C)=O)nc2C)c1,,61.2 µM (inactive),49.2 µM (inactive),59.4 µM (inactive),29.6 µM (inactive),50.9 µM (inactive),34.9 µM (inactive),39.9 µM (inactive),35.6 µM (inactive),37.5 µM (inactive),33 µM (inactive),27.3 µM (inactive),32 µM (inactive),31 µM,36.2 µM (inactive),
CC#CC1C2CCCC1(CSc1ccccc1)NC(=O)O2 (centres undefined),> 100 µM (inactive),,> 100 µM (inactive),> 100 µM (inactive),> 100 µM (inactive),> 100 µM (inactive),> 100 µM (inactive),> 100 µM (inactive),> 100 µM (inactive),> 100 µM (inactive),> 100 µM (inactive),> 100 µM (inactive),> 100 µM (inactive),> 100 µM,> 100 µM (inactive),> 100 µM (inactive)
C=C1C(=O)OC2/C=C(\C)C3OC3/C=C(/C(=O)OC)C(O)C(OC(=O)C3(C)OC3C)C12 (centres undefined),1.27 µM (inactive),1.52 µM (inactive),1.52 µM (inactive),,1.01 µM (active),1.9 µM (inactive),1.25 µM (inactive),1.31 µM (inactive),1.65 µM (inactive),2.58 µM (inactive),2.39 µM (inactive),15.3 µM (inactive),13.6 µM (inactive),1.53 µM,,1.02 µM (active)
O=C(c1ccc(Cl)cc1Cl)N(/N=C/C=C/c1ccccc1)c1nnc(-c2ccccc2)c(-c2ccccc2)n1,> 100 µM (inactive),> 100 µM (inactive),> 100 µM (inactive),> 100 µM (inactive),> 100 µM (inactive),,> 100 µM (inactive),> 100 µM (inactive),> 100 µM (inactive),> 100 µM (inactive),> 100 µM (inactive),> 100 µM (inactive),> 100 µM (inactive),> 100 µM,> 100 µM (inactive),> 100 µM (inactive)
COc1cc(OC(=O)c2c(O)cc(O)c(O)c2C)cc(C)c1C(=O)Oc1cc(C)c(C(=O)O)c(O)c1,> 100 µM (inactive),> 100 µM (inactive),> 100 µM (inactive),,> 100 µM (inactive),> 100 µM (inactive),> 100 µM (inactive),> 100 µM (inactive),> 100 µM (inactive),> 100 µM (inactive),> 100 µM (inactive),> 100 µM (inactive),> 100 µM (inactive),> 100 µM,> 100 µM (inactive),> 100 µM (inactive)
COc1ccccc1NC(=O)C1=C(C)NC(C)=C(C(=O)Nc2ccccc2OC)C1/C=C/c1ccccc1,> 100 µM (inactive),> 100 µM (inactive),> 100 µM (inactive),> 100 µM (inactive),97.9 µM (inactive),> 100 µM (inactive),> 100 µM (inactive),> 100 µM (inactive),> 100 µM (inactive),89.3 µM (inactive),> 100 µM (inactive),92.9 µM (inactive),> 100 µM (inactive),> 100 µM,60.1 µM (inactive),
CSc1ccc(/C=C2/C[N+](C)(C)C/C(=C/c3ccc(SC)cc3)C2=O)cc1,5.18 µM (inactive),8.09 µM (inactive),4.16 µM (inactive),,0.168 µM (active),13.5 µM (inactive),8.89 µM (inactive),,,19.1 µM (inactive),7.89 µM (inactive),10.5 µM (inactive),27.2 µM (inactive),47 µM,2.49 µM (inactive),17 µM (inactive)
O=c1c2ccccc2nc(-c2ccccc2)n1NC(=S)Nc1ccc(Cl)cc1[N+](=O)[O-],51.5 µM (inactive),21.7 µM (inactive),> 100 µM (inactive),,39.7 µM (inactive),> 100 µM (inactive),> 100 µM (inactive),58.7 µM (inactive),69.3 µM (inactive),,65 µM (inactive),> 100 µM (inactive),92.3 µM (inactive),35 µM,35.3 µM (inactive),22.9 µM (inactive)
c1cc2[se][se]c3c4cccc5[se][se]c(c(c1)c23)c54,> 100 µM (inactive),> 100 µM (inactive),> 100 µM (inactive),> 100 µM (inactive),> 100 µM (inactive),> 100 µM (inactive),> 100 µM (inactive),> 100 µM (inactive),> 100 µM (inactive),,> 100 µM (inactive),> 100 µM (inactive),> 100 µM (inactive),,> 100 µM (inactive),> 100 µM (inactive)
O=C(O)c1cc(=O)c2cc(C(=O)c3cccs3)c(Cl)c(Cl)c2o1,,> 100 µM (inactive),> 100 µM (inactive),> 100 µM (inactive),> 100 µM (inactive),> 100 µM (inactive),> 100 µM (inactive),> 100 µM (inactive),> 100 µM (inactive),> 100 µM (inactive),> 100 µM (inactive),> 100 µM (inactive),> 100 µM (inactive),,> 100 µM (inactive),
COc1ccc(COCC(Cn2ccnc2)OCc2ccc(C(=O)O)cc2)cc1 (centres undefined),> 100 µM (inactive),> 100 µM (inactive),> 100 µM (inactive),,> 100 µM (inactive),> 100 µM (inactive),> 100 µM (inactive),> 100 µM (inactive),> 100 µM (inactive),> 100 µM (inactive),> 100 µM (inactive),> 100 µM (inactive),> 100 µM (inactive),> 100 µM,> 100 µM (inactive),> 100 µM (inactive)
